Results: PubChem BioAssay (NCI)
Where “and” joins values, the source holds several entries; their conditions need not be identical. Equal entries are not always repeated.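 Values below derive from 48-hour exposures of cells grown in 96-well plates, with endpoints linearly interpolated between the two concentrations bracketing the appropriate inhibition level. Abbreviation: GI50, concentration required for 50% inhibition of growth. Definition used: TGI = concentration required for complete inhibition of growth.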

Tests used:
Test in all cases: DTP human tumour cell line panel, 48 h
HCC-2998 colon = test system: HCC-2998 colon
SNB-19 CNS = test system: SNB-19 CNS
OVCAR-8 ovarian = test system: OVCAR-8 ovarian
HL-60(TB) leukemia = test system: HL-60(TB) leukemia
SF-539 CNS = test system: SF-539 CNS
MDA-MB-435 = test system: MDA-MB-435
A549 NSCLC = test system: A549 NSCLC
RXF 393 renal = test system: RXF 393 renal
NCI-H460 lung = test system: NCI-H460 lung
HOP-62 NSCLC = test system: HOP-62 NSCLC
RPMI-8226 leukemia = test system: RPMI-8226 leukemia
EKVX NSCLC = test system: EKVX NSCLC

SMILES	TGI (HCC-2998 colon)	TGI (SNB-19 CNS)	TGI (OVCAR-8 ovarian)	TGI (HL-60(TB) leukemia)	TGI (SF-539 CNS)	TGI (MDA-MB-435)	TGI (A549 NSCLC)	TGI (RXF 393 renal)	TGI (NCI-H460 lung)	TGI (HOP-62 NSCLC)	TGI (RPMI-8226 leukemia)	TGI (EKVX NSCLC)	GI50 (HL-60(TB) leukemia)	GI50 (SF-539 CNS)	GI50 (HCC-2998 colon)
CCOC(=O)N1CCN(c2ccc3c(C)cc(C)nc3n2)CC1	> 100 µM	> 100 µM	> 100 µM	> 100 µM	> 100 µM	> 100 µM	> 100 µM	> 100 µM	> 100 µM	> 100 µM	> 100 µM	> 100 µM	–	–	–
CC(C)[C@@H]1CC[C@@H](C)C[C@H]1OC(=O)/C=C1/C2C=CC(O2)C1C(=O)O[C@@H]1C[C@H](C)CC[C@H]1C(C)C (stereo partly drawn)	> 100 µM	> 100 µM	> 100 µM	> 100 µM	> 100 µM	> 100 µM	> 100 µM	> 100 µM	> 100 µM	> 100 µM	> 100 µM	> 100 µM	–	–	–
COc1ccc2[nH]c(Cl)c(/C=C3/C(=O)Nc4cc(C)c(OC)cc43)c2c1	17.2 µM	22.2 µM	25.7 µM	6.08 µM	4.8 µM	3.51 µM	92.6 µM	27.9 µM	12.9 µM	18.5 µM	> 100 µM	22.7 µM	–	–	–
Cc1sc2nc(-c3cc([N+](=O)[O-])c(Cl)cc3Cl)c(/C=N/N=C(N)N)n2c1C	5.39 µM	–	31.6 µM	–	88 µM	16.6 µM	> 100 µM	20.6 µM	54.7 µM	> 100 µM	54 µM	48.4 µM	–	–	–
O=C1C(NCCc2ccc(O)c(O)c2)=CC(=O)c2ncccc21	27.8 µM	45.8 µM	57.3 µM	60.3 µM	30.1 µM	3.28 µM	35.7 µM	28.4 µM	29.4 µM	49.9 µM	> 70 µM	52 µM	–	–	–
O=C1C(F)=CC(COC(c2ccccc2)(c2ccccc2)c2ccccc2)OC1n1cc(F)c(=O)[nH]c1=O (stereo not drawn)	14.1 µM	12.8 µM	7 µM	10.2 µM	3.75 µM	3.18 µM	6.12 µM	4.11 µM	7.68 µM	11.6 µM	1.31 µM	> 24.4 µM	–	–	–
O=C(Nc1nc2c(=O)[nH]cnc2s1)c1ccccc1	> 100 µM	> 100 µM	> 100 µM	> 100 µM	> 100 µM	> 100 µM	> 100 µM	> 100 µM	> 100 µM	> 100 µM	–	> 100 µM	–	–	–
Cc1cc(CNC(=O)OCc2ccccc2)c(C)c2c1Oc1ccccc1O2	> 100 µM	> 92.9 µM	58.5 µM	> 100 µM	47.9 µM	> 100 µM	97.7 µM	32.6 µM	> 100 µM	53.3 µM	> 100 µM	> 100 µM	> 100 µM	19.5 µM	–
O=C1CSc2nc3ccccc3n2/C=N\N1	> 100 µM	> 100 µM	> 100 µM	–	–	> 100 µM	> 100 µM	> 100 µM	> 100 µM	–	> 100 µM	–	–	–	–
Cc1ccc(N=Nc2c(O)ccc3cc(S(=O)(=O)O)ccc23)c(C)c1	> 100 µM	> 100 µM	> 100 µM	> 100 µM	> 100 µM	> 100 µM	> 100 µM	> 100 µM	> 100 µM	> 100 µM	–	> 100 µM	–	–	–
O=C(Nc1c[nH]c(=O)[nH]c1=O)C(Cl)Cl	> 100 µM	> 100 µM	> 100 µM	> 100 µM	> 100 µM	> 100 µM	> 100 µM	> 100 µM	–	> 100 µM	> 100 µM	> 100 µM	–	–	–
O=c1[nH]nc(-c2ccccc2)n1/N=C/c1c[nH]c2ccccc12	> 100 µM	> 100 µM	> 100 µM	> 100 µM	> 100 µM	> 100 µM	> 100 µM	> 100 µM	> 100 µM	> 100 µM	> 100 µM	> 100 µM	–	–	–
COC(=O)C(C)(N=Cc1ccccc1)c1ccccc1 (stereo not drawn)	> 100 µM	> 100 µM	> 100 µM	> 100 µM	> 100 µM	> 100 µM	> 100 µM	> 100 µM	> 100 µM	> 100 µM	> 100 µM	> 100 µM	–	–	–
NC(=Nc1ccc(O)cc1)S(=O)(=O)O	> 100 µM	> 100 µM	> 100 µM	> 100 µM	> 100 µM	> 100 µM	> 100 µM	> 100 µM	> 100 µM	> 100 µM	–	> 100 µM	–	–	–
NCCCn1c2ccccc2c2c3c(c4c(c21)CCC(O)CC4)C(=O)NC3=O (stereo not drawn)	4.24 µM	–	21.6 µM	22 µM	21.6 µM	13.6 µM	21.6 µM	13.6 µM	14 µM	15.9 µM	14.6 µM	23.7 µM	–	–	–
COc1ccc(S(=O)(=O)O)cc1-n1nc(C(=O)Nc2ccccc2)n[n+]1-c1cc(S(=O)(=O)[O-])ccc1OC	> 100 µM	> 100 µM	–	> 100 µM	> 100 µM	> 100 µM	> 100 µM	> 100 µM	> 100 µM	> 100 µM	> 100 µM	> 100 µM	–	–	–
O=C(NCCC(F)(F)C(F)(F)C(F)(F)C(F)(F)F)NC1OC(CO)C(O)C(O)C1O (stereo not drawn)	> 100 µM	> 100 µM	–	> 100 µM	> 100 µM	> 100 µM	> 100 µM	> 100 µM	> 100 µM	> 100 µM	> 100 µM	–	–	–	–
CC(C(=O)ON1C(=O)CCC1=O)c1ccc(C(=O)c2ccccc2)s1 (stereo not drawn)	> 100 µM	> 100 µM	> 100 µM	–	–	> 100 µM	> 100 µM	> 100 µM	> 100 µM	> 100 µM	> 100 µM	> 100 µM	–	–	–
COc1cccc(-c2ccc3c4c2O[C@H]2c5[nH]c6ccccc6c5C[C@@]5(O)[C@@H](C3)N(CC3CC3)CC[C@]425)c1	2.87 µM	4.23 µM	3.11 µM	–	3.51 µM	3.18 µM	3.36 µM	3.03 µM	3.22 µM	3.12 µM	5.25 µM	9.5 µM	–	–	–
CCOc1cc(NC(C)=O)ccc1C(=O)NN1C(=O)C(Oc2ccccc2)C1c1ccccc1 (stereo not drawn)	> 100 µM	–	> 100 µM	> 100 µM	> 100 µM	> 100 µM	–	> 100 µM	> 100 µM	> 100 µM	> 100 µM	> 100 µM	–	–	–
ClC(Cl)(Cl)C1=N[C@H]2[C@H](Br)[C@@H]3O[C@@H](c4ccccc4)[C@H](c4ccccc4)O[C@@H]3[C@H]2O1	28.5 µM	63.9 µM	33.3 µM	–	–	42.4 µM	49.2 µM	45.4 µM	30 µM	41.3 µM	41 µM	50.3 µM	–	–	–
Cc1cc(-c2[nH]c(C(=O)O)cc2I)on1	> 100 µM	> 100 µM	81.9 µM	–	–	> 100 µM	> 100 µM	> 100 µM	> 100 µM	> 100 µM	> 100 µM	> 100 µM	–	–	–
COc1ccc(O[C@H](COCc2ccccc2)C[C@@H]2COC(C)(C)O2)cc1	> 100 µM	> 100 µM	> 100 µM	–	> 100 µM	> 100 µM	> 100 µM	> 100 µM	> 100 µM	> 100 µM	> 100 µM	> 100 µM	–	–	–
COC(=O)/C=C(\C)C(=O)N(C)c1ccccc1I	> 100 µM	> 100 µM	> 100 µM	–	–	> 100 µM	> 100 µM	> 100 µM	> 100 µM	> 100 µM	> 100 µM	> 100 µM	–	–	–
CCOC(=O)c1cc(C(=O)c2ccccc2)n2nc(-c3ccc(Cl)cc3)ccc12	51 µM	34.8 µM	–	> 100 µM	–	> 100 µM	30.8 µM	32.7 µM	50.9 µM	34.8 µM	> 100 µM	42.6 µM	–	–	–
CC(C)C(C/C=C1\CC(CO)(COC(=O)c2ccccc2)OC1=O)C(C)C (stereo not drawn)	44.8 µM	31.8 µM	36 µM	–	–	> 100 µM	30.5 µM	45.4 µM	43.7 µM	28.7 µM	–	29.8 µM	–	–	–
CCOC(=O)Oc1cc2c(c(OC)c1OC)-c1ccc(SC)c(=O)cc1C(NC(=O)C(F)(F)F)CC2 (stereo not drawn)	–	> 100 µM	–	0.0148 µM	–	< 0.001 µM	> 100 µM	< 0.001 µM	0.753 µM and 2.47 µM	> 100 µM	14.1 µM	–	–	–	0.0146 µM
COc1ccc2cc1Oc1ccc(cc1)C(Sc1ccccc1)CCOC(=O)CC2 (stereo not drawn)	> 100 µM	> 100 µM	> 100 µM	> 100 µM	> 100 µM	> 100 µM	> 100 µM	> 100 µM	–	> 100 µM	> 100 µM	> 100 µM	–	–	–
CC1(C)[C@@H](Cn2cnc3c(N)ncnc32)CC[C@@]1(C)CO	> 100 µM	> 100 µM	> 100 µM	> 100 µM	–	> 100 µM	> 100 µM	> 100 µM	> 100 µM	> 100 µM	–	> 100 µM	–	–	–
